Results from PubChem BioAssay AID2060509 (Molecular Pharmacology Branch, DTP, NCI, 2025).
pIC50: −log10 of the molar value.

Test system: 485176-168-R4-J1-PDC spheroids with HUVEC/MSC, viability
Assay: Anticancer human tumor 485176-168-R4-J1-PDC patient-derived pancreatic adenocarcinoma cell line growth inhibition [GQUAD]
Details: for pIC50: curve of first compound; for viability, T/C: stronger effect = lower value; active means viability on the fitted dose curve at most 10% of control; inactive means the rest
Outline: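 Multi-cell-type spheroids of tumor cells with HUVEC and mesenchymal stem cells, treated with drug combinations. Concentrations descend in half-log steps from near clinical Cmax, or from 10 microM where Cmax is unknown; viability read-out.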

[1] = second compound 0.0316 µM, first compound 0.0316 µM
[2] = second compound 0.0316 µM, first compound 0.316 µM
[3] = second compound 0.1 µM, first compound 0.0316 µM
[4] = second compound 0.1 µM, first compound 0.316 µM
[5] = second compound 0.316 µM, first compound 0.0316 µM
[6] = second compound 0.316 µM, first compound 0.316 µM
[7] = second compound 1 µM, first compound 0.0316 µM
[8] = second compound 1 µM, first compound 0.316 µM
[9] = second compound 3.16 µM, first compound 0.0316 µM
[10] = second compound 3.16 µM, first compound 0.316 µM
[11] = second compound 10 µM, first compound 0.0316 µM
[12] = second compound 10 µM, first compound 0.316 µM
[13] = second compound 0.0316 µM, first compound 0.1 µM
[14] = second compound 0.0316 µM, first compound 1 µM
[15] = second compound 0.0316 µM, first compound 3.16 µM
[16] = second compound 0.0316 µM, first compound 10 µM
[17] = second compound 0.1 µM, first compound 0.1 µM
[18] = second compound 0.1 µM, first compound 1 µM
[19] = second compound 0.1 µM, first compound 3.16 µM
[20] = second compound 0.1 µM, first compound 10 µM
[21] = second compound 0.316 µM, first compound 0.1 µM
[22] = second compound 0.316 µM, first compound 1 µM
[23] = second compound 0.316 µM, first compound 3.16 µM
[24] = second compound 0.316 µM, first compound 10 µM
[25] = second compound 1 µM, first compound 0.1 µM
[26] = second compound 1 µM, first compound 1 µM
[27] = second compound 1 µM, first compound 3.16 µM
[28] = second compound 1 µM, first compound 10 µM
[29] = second compound 3.16 µM, first compound 0.1 µM
[30] = second compound 3.16 µM, first compound 1 µM
[31] = second compound 3.16 µM, first compound 3.16 µM
[32] = second compound 3.16 µM, first compound 10 µM
[33] = second compound 10 µM, first compound 0.1 µM
[34] = second compound 10 µM, first compound 1 µM
[35] = second compound 10 µM, first compound 3.16 µM
[36] = second compound 10 µM, first compound 10 µM
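Further: spheroids exposed to compounds for seven days before readout.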
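Wherever viability, T/C is given: percent viability relative to DMSO vehicle control wells as 100%.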

CC[C@@]1(O)C(=O)OCc2c1cc1n(c2=O)Cc2cc3c(CN(C)C)c(O)ccc3nc2-1 + CN(C)c1ccc(Nc2c3ccc(NC(=O)CCN4CCCC4)cc3nc3cc(NC(=O)CCN4CCCC4)ccc23)cc1
6.73: pIC50 (second compound 0.1 µM)
6.74: pIC50 (second compound 0.0316 µM)
6.77: pIC50 (second compound 0.316 µM)
6.89: pIC50 (second compound 3.16 µM)
6.63: pIC50 (second compound 10 µM)
inactive: viability, T/C (second compound 0.0316 µM, first compound 0.000999 µM) 97.9% | viability, T/C (second compound 0.0316 µM, first compound 0.00316 µM) 88.1% | viability, T/C (second compound 0.0316 µM, first compound 0.00999 µM) 83.8% | viability, T/C [1] 90.6% | viability, T/C (second compound 0.0316 µM, first compound 0.0999 µM) 65% | viability, T/C [2] 35.6% | viability, T/C (second compound 0.1 µM, first compound 0.000999 µM) 94.8% | viability, T/C (second compound 0.1 µM, first compound 0.00316 µM) 106% | viability, T/C (second compound 0.1 µM, first compound 0.00999 µM) 95.9% | viability, T/C [3] 81% | viability, T/C (second compound 0.1 µM, first compound 0.0999 µM) 64.5% | viability, T/C [4] 38.4% | viability, T/C (second compound 0.316 µM, first compound 0.000999 µM) 97.3% | viability, T/C (second compound 0.316 µM, first compound 0.00316 µM) 117% | viability, T/C (second compound 0.316 µM, first compound 0.00999 µM) 107% | viability, T/C [5] 99.1% | viability, T/C (second compound 0.316 µM, first compound 0.0999 µM) 55.7% | viability, T/C [6] 43.1% | viability, T/C (second compound 1 µM, first compound 0.000999 µM) 89.1% | viability, T/C (second compound 1 µM, first compound 0.00316 µM) 97.7% | viability, T/C (second compound 1 µM, first compound 0.00999 µM) 99.1% | viability, T/C [7] 81.1% | viability, T/C (second compound 1 µM, first compound 0.0999 µM) 69.5% | viability, T/C [8] 35.8% | viability, T/C (second compound 3.16 µM, first compound 0.000999 µM) 104% | viability, T/C (second compound 3.16 µM, first compound 0.00316 µM) 99.7% | viability, T/C (second compound 3.16 µM, first compound 0.00999 µM) 87.2% | viability, T/C [9] 76.6% | viability, T/C (second compound 3.16 µM, first compound 0.0999 µM) 52.6% | viability, T/C [10] 35.5% | viability, T/C (second compound 10 µM, first compound 0.000999 µM) 108% | viability, T/C (second compound 10 µM, first compound 0.00316 µM) 98.6% | viability, T/C (second compound 10 µM, first compound 0.00999 µM) 88.3% | viability, T/C [11] 94.6% | viability, T/C (second compound 10 µM, first compound 0.0999 µM) 63.5% | viability, T/C [12] 44%
6.72: pIC50 (second compound 1 µM)

CC(C)(O)C1CCC(Nc2ccc3ncc(-c4cccc(C(F)(F)F)c4)n3n2)CC1 (stereo not drawn) + CN(C)c1ccc(Nc2c3ccc(NC(=O)CCN4CCCC4)cc3nc3cc(NC(=O)CCN4CCCC4)ccc23)cc1
inactive: viability, T/C [1] 101% | viability, T/C [13] 104% | viability, T/C [2] 86.1% | viability, T/C [14] 78.8% | viability, T/C [15] 56.7% | viability, T/C [16] 51.1% | viability, T/C [3] 83.8% | viability, T/C [17] 89.5% | viability, T/C [4] 88.7% | viability, T/C [18] 77.7% | viability, T/C [19] 64.5% | viability, T/C [20] 51% | viability, T/C [5] 104% | viability, T/C [21] 84.6% | viability, T/C [6] 100% | viability, T/C [22] 97.9% | viability, T/C [23] 56.2% | viability, T/C [24] 59.1% | viability, T/C [7] 111% | viability, T/C [25] 104% | viability, T/C [8] 82.2% | viability, T/C [26] 91.4% | viability, T/C [27] 56.6% | viability, T/C [28] 42.1% | viability, T/C [9] 88.1% | viability, T/C [29] 81.1% | viability, T/C [10] 92.1% | viability, T/C [30] 97.7% | viability, T/C [31] 44.4% | viability, T/C [32] 37.3% | viability, T/C [11] 89% | viability, T/C [33] 85.7% | viability, T/C [12] 72.6% | viability, T/C [34] 65.9% | viability, T/C [35] 25.4% | viability, T/C [36] 16.4%
5.82: pIC50 (second compound 10 µM)
5.20: pIC50 (second compound 1 µM)
< 5.00: pIC50 (second compound 0.0316 µM) | pIC50 (second compound 0.1 µM) | pIC50 (second compound 0.316 µM)
5.56: pIC50 (second compound 3.16 µM)

O=C(NO)c1cnc(N2CCN(S(=O)(=O)c3ccc4ccccc4c3)CC2)nc1 + CN(C)c1ccc(Nc2c3ccc(NC(=O)CCN4CCCC4)cc3nc3cc(NC(=O)CCN4CCCC4)ccc23)cc1
6.27: pIC50 (second compound 3.16 µM)
6.34: pIC50 (second compound 1 µM)
6.42: pIC50 (second compound 10 µM)
6.33: pIC50 (second compound 0.1 µM)
active: viability, T/C [15] 0.23% | viability, T/C [16] 0.27% | viability, T/C [19] 0.21% | viability, T/C [20] 0.2% | viability, T/C [23] 0.19% | viability, T/C [24] 0.17% | viability, T/C [27] 0.21% | viability, T/C [28] 0.2% | viability, T/C [30] 9.67% | viability, T/C [31] 0.25% | viability, T/C [32] 0.2% | viability, T/C [35] 0.25% | viability, T/C [36] 0.22%
6.30: pIC50 (second compound 0.316 µM)
inactive: viability, T/C [1] 92.8% | viability, T/C [13] 84.5% | viability, T/C [2] 74.8% | viability, T/C [14] 10.4% | viability, T/C [3] 85.5% | viability, T/C [17] 92.1% | viability, T/C [4] 70.8% | viability, T/C [18] 10.7% | viability, T/C [5] 112% | viability, T/C [21] 85.6% | viability, T/C [6] 78.5% | viability, T/C [22] 9.79% | viability, T/C [7] 114% | viability, T/C [25] 88.8% | viability, T/C [8] 70.9% | viability, T/C [26] 12.5% | viability, T/C [9] 91.2% | viability, T/C [29] 98.4% | viability, T/C [10] 84.5% | viability, T/C [11] 83.2% | viability, T/C [33] 73.6% | viability, T/C [12] 57.7% | viability, T/C [34] 12.3%
6.31: pIC50 (second compound 0.0316 µM)

CCCS(=O)(=O)Nc1ccc(F)c(C(=O)c2c[nH]c3ncc(-c4ccc(Cl)cc4)cc23)c1F + Cc1[nH]c2ccc(F)cc2c1-c1nc2c3cccnc3c3ncccc3c2[nH]1
inactive: viability, T/C [1] 95% | viability, T/C [13] 93.6% | viability, T/C [2] 96.1% | viability, T/C [14] 94.8% | viability, T/C [15] 116% | viability, T/C [16] 75.5% | viability, T/C [3] 84.8% | viability, T/C [17] 102% | viability, T/C [4] 87.8% | viability, T/C [18] 86.1% | viability, T/C [19] 99.1% | viability, T/C [20] 71.2% | viability, T/C [5] 105% | viability, T/C [21] 86.1% | viability, T/C [6] 90.7% | viability, T/C [22] 82.9% | viability, T/C [23] 80.1% | viability, T/C [24] 67.2% | viability, T/C [7] 87.2% | viability, T/C [25] 85.2% | viability, T/C [8] 76.7% | viability, T/C [26] 84.2% | viability, T/C [27] 77.5% | viability, T/C [28] 69.5% | viability, T/C [9] 104% | viability, T/C [29] 88.6% | viability, T/C [10] 89% | viability, T/C [30] 72.1% | viability, T/C [31] 84% | viability, T/C [32] 63.5% | viability, T/C [11] 84.9% | viability, T/C [33] 91% | viability, T/C [12] 88.4% | viability, T/C [34] 74.9% | viability, T/C [35] 66.6% | viability, T/C [36] 51.7%
< 5.00: pIC50 (second compound 0.0316 µM) | pIC50 (second compound 0.1 µM) | pIC50 (second compound 0.316 µM) | pIC50 (second compound 1 µM) | pIC50 (second compound 3.16 µM) | pIC50 (second compound 10 µM)
